# Experimental data as given in article PMC12992618 (Nature Communications, 2026).
# What was measured:
# [1] = target: T1, BRAF (Homo sapiens, UniProt P15056, V600E); assay: BRAF-IP kinase assay after […] h cell treatment; type: cell-based
# T1 construct: endogenous BRAF immunoprecipitated from HCC364 cells
# [2] = target: T2, CRAF (Homo sapiens, UniProt P04049); assay: CRAF-IP kinase assay after […] h cell treatment; type: cell-based
# T2 construct: gene RAF1; endogenous CRAF immunoprecipitated from NCI-H1666 and NCI-H2405 cells
# T2 sequence (P04049 whole entry): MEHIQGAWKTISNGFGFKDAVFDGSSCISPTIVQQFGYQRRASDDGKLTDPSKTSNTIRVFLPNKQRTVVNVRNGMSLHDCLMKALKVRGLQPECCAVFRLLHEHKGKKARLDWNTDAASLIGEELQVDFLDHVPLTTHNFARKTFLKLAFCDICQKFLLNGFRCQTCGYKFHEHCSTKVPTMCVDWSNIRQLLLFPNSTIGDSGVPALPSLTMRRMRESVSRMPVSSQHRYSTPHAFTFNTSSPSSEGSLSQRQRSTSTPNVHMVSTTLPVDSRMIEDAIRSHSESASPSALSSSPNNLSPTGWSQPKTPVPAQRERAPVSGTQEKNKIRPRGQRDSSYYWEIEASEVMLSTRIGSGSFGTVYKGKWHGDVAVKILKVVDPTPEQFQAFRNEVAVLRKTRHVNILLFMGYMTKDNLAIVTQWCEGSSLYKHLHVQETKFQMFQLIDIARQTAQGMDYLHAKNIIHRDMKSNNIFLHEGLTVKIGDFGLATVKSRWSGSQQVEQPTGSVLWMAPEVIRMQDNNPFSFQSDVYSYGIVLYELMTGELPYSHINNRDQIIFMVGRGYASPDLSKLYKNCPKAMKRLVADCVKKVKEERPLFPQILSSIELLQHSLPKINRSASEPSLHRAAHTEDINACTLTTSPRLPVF
# T1 sequence (P15056 2-766 V600E): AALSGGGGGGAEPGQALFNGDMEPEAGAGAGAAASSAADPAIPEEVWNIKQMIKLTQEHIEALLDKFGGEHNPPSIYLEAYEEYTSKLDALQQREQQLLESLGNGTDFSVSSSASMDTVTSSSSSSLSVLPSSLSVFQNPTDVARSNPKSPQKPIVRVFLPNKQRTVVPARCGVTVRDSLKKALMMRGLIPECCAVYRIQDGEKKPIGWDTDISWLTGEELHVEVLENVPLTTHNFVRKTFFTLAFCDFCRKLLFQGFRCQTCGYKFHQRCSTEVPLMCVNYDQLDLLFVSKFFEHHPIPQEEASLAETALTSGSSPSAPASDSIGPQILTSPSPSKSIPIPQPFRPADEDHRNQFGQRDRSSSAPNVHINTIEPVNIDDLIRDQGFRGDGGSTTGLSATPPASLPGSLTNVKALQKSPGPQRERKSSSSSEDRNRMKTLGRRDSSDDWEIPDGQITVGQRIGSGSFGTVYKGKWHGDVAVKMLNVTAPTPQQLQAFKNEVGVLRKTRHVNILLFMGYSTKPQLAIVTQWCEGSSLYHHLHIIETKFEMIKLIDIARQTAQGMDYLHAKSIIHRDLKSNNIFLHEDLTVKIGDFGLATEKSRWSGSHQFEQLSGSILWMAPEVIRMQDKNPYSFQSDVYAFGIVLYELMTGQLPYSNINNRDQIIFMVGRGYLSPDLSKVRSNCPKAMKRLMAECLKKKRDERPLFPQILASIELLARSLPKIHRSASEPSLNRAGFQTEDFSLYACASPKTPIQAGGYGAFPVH
structure (smiles),measurement,setting,value
Cc1ccc2c(Nc3cccc(Cl)c3F)nccc2c1NC(=O)c1csc2c(N)ncnc12 [belvarafenib],BRAF-IP kinase assay after 4 h cell treatment,[1],Exarafenib and belvarafenib exhibit potent inhibition of BRAF kinase activity in Class I and II BRAF mutations
same,CRAF-IP kinase assay after 4 h cell treatment,[2],baseline CRAF kinase activity was strongly detected in NCI-H1666 cells and was significantly inhibited by exarafenib and belvarafenib
